Patent US20090099195A1 (ASTRAZENECA AB, priority 2007, published 2009)

Tests used:
[1] = molecular target: T1, rat P2X2/3 (rat P2X3 co-expressed with rat P2X2) (Rattus norvegicus, UniProt P49653+P49654); assay: rat P2X2/3 FLIPR calcium (Fluo-4) antagonist assay; details: Rat P2X2/3 FLIPR Mean IC50 (nM), HEK-TREX cells, tetracycline-induced rat P2X3 with constitutive rat P2X2; agonist 500 nM α,β-methylene-ATP
T1 sequence (P49654 1-397): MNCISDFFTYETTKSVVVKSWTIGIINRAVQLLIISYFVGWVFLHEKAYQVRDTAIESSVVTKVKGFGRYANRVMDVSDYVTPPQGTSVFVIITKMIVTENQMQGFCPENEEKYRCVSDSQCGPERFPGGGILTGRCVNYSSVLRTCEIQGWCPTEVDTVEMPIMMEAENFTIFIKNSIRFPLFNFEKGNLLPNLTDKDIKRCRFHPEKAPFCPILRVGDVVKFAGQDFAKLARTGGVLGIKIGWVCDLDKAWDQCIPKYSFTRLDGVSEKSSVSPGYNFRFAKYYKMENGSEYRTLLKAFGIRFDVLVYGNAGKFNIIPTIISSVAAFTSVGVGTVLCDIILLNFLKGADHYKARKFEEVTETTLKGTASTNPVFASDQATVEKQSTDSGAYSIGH
T1 sequence (P49653 1-472): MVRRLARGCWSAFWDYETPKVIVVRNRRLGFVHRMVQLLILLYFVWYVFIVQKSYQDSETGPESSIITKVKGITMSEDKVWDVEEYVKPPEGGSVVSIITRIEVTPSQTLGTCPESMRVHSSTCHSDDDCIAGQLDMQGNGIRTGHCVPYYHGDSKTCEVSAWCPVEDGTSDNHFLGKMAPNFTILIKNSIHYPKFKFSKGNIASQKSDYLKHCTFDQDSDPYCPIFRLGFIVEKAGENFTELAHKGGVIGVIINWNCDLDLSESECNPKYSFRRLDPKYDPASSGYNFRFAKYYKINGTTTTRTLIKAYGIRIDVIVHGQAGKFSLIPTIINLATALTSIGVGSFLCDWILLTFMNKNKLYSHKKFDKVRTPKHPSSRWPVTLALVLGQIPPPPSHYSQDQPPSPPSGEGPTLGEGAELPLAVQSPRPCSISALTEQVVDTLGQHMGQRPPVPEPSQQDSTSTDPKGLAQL
Description: The assay used a calcium indicator dye (Fluo-4) that emits fluorescence, the intensity of which is related to the concentration of calcium that entered the cell when P2X3 was activated and the channel opened. Activation of hP2X3 or rat P2X3 and rat P2X2/3 (from the coexpression of rat P2X3 and rat P2×2) is elicited the by P2X3 agonist α,β methylene-ATP (Sigma M6517), and the resulting fluorescence is measured with a FLIPR II™ instrument (Molecular Devices). Compounds are tested for their ability to inhibit the agonist-induced fluorescent signal.
For the rat P2X2/3 HEK-TREX cells, induction of the rat P2X3 expression is used to generate the rat P2X2/3 channels in HEK-TREX cells and performed by addition of 1 μg/mL tetracycline (Invitrogen) 24 h prior to compounds testing to the HEK-TREX expressing the rat P2X2 constitutively. On the day of the experiment, the cells and test compounds are prepared as follows. […] After preparing the compounds, the medium is removed from the cell plates by inversion. A loading solution of 30 μL assay buffer containing 4 μM of the calcium indicator dye FLUO-4 AM (Molecular Probes F14202) is added to each well using a Multidrop (Labsystems). […] The incubation is terminated by washing the cells four times in assay buffer using a Skatron Embla (Molecular Devices), and 25 μL of assay buffer was left in each well. Cell plates are then transferred to the FLIPR. Experiments are initiated by measuring a baseline fluorescence reading for 10 seconds, followed by the addition of 12.5 μL of cpds and data sampling for a total 280 seconds. The experiments are terminated by addition of 12.5 μL of a reference agonist (500 nM α,β-methylene-ATP) or buffer, producing a final assay volume of 50 μL followed by data sampling for an additional 280 seconds.
In P2X3 antagonist experiments (human and rat assays) data are analysed as normalised maximal peak fluorescence monitored following agonist addition and calculated as percent of relative fluorescent counts from control agonist. The dose-response antagonist inhibition curves are analyzed in a 4-parameter sigmoidal fit using a non-linear curve-fitting program (XLfit version 5.0.6, ID Business Solutions Limited, Guildford, UK).

[2] = molecular target: T2, hP2X3 (human Purinergic P2X receptors subtype 3), clone B (Homo sapiens, UniProt P56373); assay: hP2X3 FLIPR calcium (Fluo-4) antagonist assay, clone B; details: Human P2X3 FLIPR Clone B IC50 (nM), RLE cells expressing hP2X3 clone B (NM_002559); agonist 500 nM α,β-methylene-ATP
T2 sequence (P56373 1-397): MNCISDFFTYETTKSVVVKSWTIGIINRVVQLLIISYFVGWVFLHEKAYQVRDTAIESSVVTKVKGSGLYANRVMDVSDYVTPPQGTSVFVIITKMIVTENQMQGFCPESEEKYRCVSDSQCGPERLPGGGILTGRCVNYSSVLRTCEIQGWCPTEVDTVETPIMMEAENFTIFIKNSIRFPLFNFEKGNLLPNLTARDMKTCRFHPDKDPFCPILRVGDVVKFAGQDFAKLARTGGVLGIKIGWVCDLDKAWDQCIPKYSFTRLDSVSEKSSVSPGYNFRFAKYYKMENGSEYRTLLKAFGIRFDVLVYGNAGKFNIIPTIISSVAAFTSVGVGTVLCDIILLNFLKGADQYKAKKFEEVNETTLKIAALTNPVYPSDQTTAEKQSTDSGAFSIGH

| IC50 [1] | IC50 [2] | Structure (SMILES) |
| --- | --- | --- |
| 1110 nM | 63 nM | CC(=O)N1CCN(c2nc3c(c(N(Cc4cc5ccccc5cn4)CC4CC4)n2)CN(C(C)C)C3=O)CC1 [Example 253, 2-(4-acetylpiperazin-1-yl)-4-((cyclopropylmethyl)(isoquinolin-3-ylmethyl)amino)-6-isopropyl-5H-pyrrolo[3,4-d]pyrimidin-7(6H)-one] |
| 15700 nM | 850 nM | CC(=O)N1CCN(c2nc3c(c(N4CCC[C@@H]4C(=O)OCc4ccccc4)n2)CN(C(C)C)C3=O)CC1 [Example 265, benzyl (2R)-1-[4-(4-acetylpiperazin-1-yl)-7-oxo-8-propan-2-yl-3,5,8-triazabicyclo[4.3.0]nona-1,3,5-trien-2-yl]pyrrolidine-2-carboxylate] |
| 12400 nM | 500 nM | CC(=O)N1CCN(c2nc3c(c(N4CCCCC4Cc4ccc(F)cc4)n2)CN(C(C)C)C3=O)CC1 (centres unmarked) [Example 268, 4-(4-acetylpiperazin-1-yl)-2-[2-[(4-fluorophenyl)methyl]-1-piperidyl]-8-propan-2-yl-3,5,8-triazabicyclo[4.3.0]nona-1,3,5-trien-7-one] |
| 9910 nM | 340 nM | CC(=O)N1CCN(c2nc3c(c(N4CCCC4c4cc(C)cc(C)c4)n2)CN(C(C)C)C3=O)CC1 (centres unmarked) [Example 270, 4-(4-acetylpiperazin-1-yl)-2-[2-(3,5-dimethylphenyl)pyrrolidin-1-yl]-8-propan-2-yl-3,5,8-triazabicyclo[4.3.0]nona-2,4,10-trien-7-one] |
| 12900 nM | 270 nM | CCOc1ccc(C2CCCN2c2nc(N3CCN(C(C)=O)CC3)nc3c2CN(C(C)C)C3=O)cc1 (centres unmarked) [Example 272, 4-(4-acetylpiperazin-1-yl)-2-[2-(4-ethoxyphenyl)pyrrolidin-1-yl]-8-propan-2-yl-3,5,8-triazabicyclo[4.3.0]nona-2,4,10-trien-7-one] |
| 768 nM | 170 nM | CC(=O)N1CCN(c2nc3c(c(N4CCCC4c4cnc5ccccc5c4)n2)CN(C(C)C)C3=O)CC1 (centres unmarked) [Example 274, 4-(4-acetylpiperazin-1-yl)-8-propan-2-yl-2-(2-quinolin-3-ylpyrrolidin-1-yl)-3,5,8-triazabicyclo[4.3.0]nona-1,3,5-trien-7-one] |
| 10300 nM | 760 nM | CCC(c1ccccc1)C1CCCN1c1nc(N2CCN(C(C)=O)CC2)nc2c1CN(C(C)C)C2=O (centres unmarked) [Example 275, 4-(4-acetylpiperazin-1-yl)-2-[2-(1-phenylpropyl)pyrrolidin-1-yl]-8-propan-2-yl-3,5,8-triazabicyclo[4.3.0]nona-2,4,10-trien-7-one] |
| 11400 nM | 140 nM | CC(=O)N1CCN(c2nc3c(c(N4CCCC4c4ccc5ncccc5c4)n2)CN(C(C)C)C3=O)CC1 (centres unmarked) [Example 281, 4-(4-acetylpiperazin-1-yl)-8-propan-2-yl-2-(2-quinolin-6-ylpyrrolidin-1-yl)-3,5,8-triazabicyclo[4.3.0]nona-1,3,5-trien-7-one] |

Continued, molecule first:

| Structure (SMILES) | IC50 [1] | IC50 [2] |
| --- | --- | --- |
| CC(=O)N1CCN(c2nc(N[C@H](C)c3ccc4c(c3)CCCC4)c3c(n2)C(=O)N(C(C)C)C3)CC1 [Example 166, (R)-2-(4-acetylpiperazin-1-yl)-6-isopropyl-4-(1-(5,6,7,8-tetrahydronaphthalen-2-yl)ethylamino)-5H-pyrrolo[3,4-d]pyrimidin-7(6H)-one] | 1900 nM | 47 nM |
| COc1ccc(CC(C)(C)Nc2nc(N3CCN(C(C)=O)CC3)nc3c2CN(C(C)C)C3=O)cc1 [Example 196, 2-(4-acetylpiperazin-1-yl)-6-isopropyl-4-(1-(4-methoxyphenyl)-2-methylpropan-2-ylamino)-5H-pyrrolo[3,4-d]pyrimidin-7(6H)-one] | 2180 nM | 90 nM |
| CC(=O)N(C)C1CCN(c2nc(NCc3cnc4ccccc4c3)c3c(n2)C(=O)N(C(C)C)C3)C1 (centres unmarked) [Example 208, N-(1-(6-isopropyl-7-oxo-4-(quinolin-3-ylmethylamino)-6,7-dihydro-5H-pyrrolo[3,4-d]pyrimidin-2-yl)pyrrolidin-3-yl)-N-methylacetamide] | 17600 nM | 680 nM |
| COc1cc(C(F)(F)F)ccc1CNc1nc(N2CCN(C(C)=O)CC2)nc2c1CN(C(C)C)C2=O [Example 225, 2-(4-acetylpiperazin-1-yl)-6-isopropyl-4-(2-methoxy-4-(trifluoromethyl)benzylamino)-5H-pyrrolo[3,4-d]pyrimidin-7(6H)-one] | 60700 nM | 290 nM |
| CC(=O)N1CCN(c2nc(NCc3cncc4ccccc34)c3c(n2)C(=O)N(C(C)C)C3)CC1 [Example 229, 2-(4-acetylpiperazin-1-yl)-6-isopropyl-4-(isoquinolin-4-ylmethylamino)-5H-pyrrolo[3,4-d]pyrimidin-7(6H)-one] | 14600 nM | 120 nM |
| CC(=O)N1CCN(c2nc(N[C@H](C)c3cccc(C(F)(F)F)c3)c3c(n2)C(=O)N(C(C)C)C3)CC1 [Example 230, (R)-2-(4-acetylpiperazin-1-yl)-6-isopropyl-4-(1-(3-(trifluoromethyl)phenyl)ethylamino)-5H-pyrrolo[3,4-d]pyrimidin-7(6H)-one] | 7380 nM | 87 nM |
| CC(=O)N1CCN(c2nc(N[C@H](C)c3cnc4ccccc4c3)c3c(n2)C(=O)N(C(C)C)C3)CC1 [Example 233, (R)-2-(4-acetylpiperazin-1-yl)-6-isopropyl-4-(1-(quinolin-3-yl)ethylamino)-5H-pyrrolo[3,4-d]pyrimidin-7(6H)-one] | 74.4 nM | 21 nM |
| CC(=O)N1CCN(c2nc(NCc3ccc4ncccc4c3)c3c(n2)C(=O)N(C(C)C)C3)CC1 [Example 235, 2-(4-acetylpiperazin-1-yl)-6-isopropyl-4-(quinolin-6-ylmethylamino)-5H-pyrrolo[3,4-d]pyrimidin-7(6H)-one] | 13800 nM | 83 nM |
| CC(=O)N1CCN(c2nc(NCc3ccc4nc(C)ccc4c3)c3c(n2)C(=O)N(C(C)C)C3)CC1 [Example 242, 2-(4-acetylpiperazin-1-yl)-6-isopropyl-4-((2-methylquinolin-6-yl)methylamino)-5H-pyrrolo[3,4-d]pyrimidin-7(6H)-one] | 10400 nM | 65 nM |
| CC(=O)N1CCN(c2nc(N[C@H](C)c3ccc4ncccc4c3)c3c(n2)C(=O)N(C(C)C)C3)CC1 [Example 243, (R)-2-(4-acetylpiperazin-1-yl)-6-isopropyl-4-(1-(quinolin-6-yl)ethylamino)-5H-pyrrolo[3,4-d]pyrimidin-7(6H)-one] | 1240 nM | 36 nM |
| CCN(Cc1cc2ccccc2cn1)c1nc(N2CCN(C(C)=O)CC2)nc2c1CN(C(C)C)C2=O [Example 245, 2-(4-acetylpiperazin-1-yl)-4-(ethyl(isoquinolin-3-ylmethyl)amino)-6-isopropyl-5H-pyrrolo[3,4-d]pyrimidin-7(6H)-one] | 2160 nM | 28 nM |
| CCN(Cc1cnc2ccccc2c1)c1nc(N2CCN(C(C)=O)CC2)nc2c1CN(C(C)C)C2=O [Example 246, 2-(4-acetylpiperazin-1-yl)-4-(ethyl(quinolin-3-ylmethyl)amino)-6-isopropyl-5H-pyrrolo[3,4-d]pyrimidin-7(6H)-one] | 10400 nM | 68 nM |
| CC(=O)N1CCN(c2nc(NCc3cc(C)c4ncccc4c3)c3c(n2)C(=O)N(C(C)C)C3)CC1 [Example 247, 2-(4-acetylpiperazin-1-yl)-6-isopropyl-4-((8-methylquinolin-6-yl)methylamino)-5H-pyrrolo[3,4-d]pyrimidin-7(6H)-one] | 9070 nM | 77 nM |
| CC(=O)N1CCN(c2nc(NCc3cc4ccccc4c(N(C)C)n3)c3c(n2)C(=O)N(C(C)C)C3)CC1 [Example 252, 2-(4-acetylpiperazin-1-yl)-4-((1-(dimethylamino)isoquinolin-3-yl)methylamino)-6-isopropyl-5H-pyrrolo[3,4-d]pyrimidin-7(6H)-one] | 2110 nM | 87 nM |
